Assay results: patent US8889423B2, “Method for analysis of compound-binding ability of protein” (Eisai R & D Management Co., Ltd., priority 2005, dated 2014)

What was measured:
[1] = system: proteins of HCT116 cell extract (AHCY, PCMT1, OS9, SPRY4); test: Ranking of binding ability of proteins to the immobilized compound; parameters: species or system Human; conditions: from highest-peak fraction and from ratios in the 8 M urea fraction
Description: (§1) Next, about 0.9 ml of affinity gel was put into an open column, and a diluted protein extract liquid metabolically labeled with a stable isotope was added to the open column from above and was naturally dropped. Then, 10 ml of PBS containing 1 M NaCl was flown to this column. Next, 7 ml of PBS containing 1 M urea and 0.01% CHAPS, 7 ml of PBS containing 2 M urea and 0.01% CHAPS, 7 ml of PBS containing 4 M urea and 0.01% CHAPS, and 7 ml of PBS containing 8 M urea and 0.01% CHAPS were sequentially flown, and the eluted fractions were collected (4 fractions in total).
In parallel with the above operation, a diluted protein extract liquid not metabolically labeled with a stable isotope was added to 0.9 ml of affinity gel from above and was naturally dropped. Then, 10 ml of PBS containing 1 M NaCl was flown to this column. Next, 12 ml of PBS containing 8 M urea and 0.01% CHAPS was flown, and the eluted fractions were collected to be used as an internal standard fraction.
3 ml of the internal standard fraction was added to each of the four fractionated samples and mixed together. […]
Quantitation was to be performed at the peak of the peptides containing leucine. […] Peaks forming a pair were found, and the peak intensity ratio thereof was automatically calculated. In this manner, proteins were identified and the peak intensity ratio was calculated using the constructed software. […]

[2] = target: T1, MTAP (5′-methylthioadenosine phosphorylase) (Homo sapiens, UniProt Q13126); test: Affinity chromatography on immobilized compound with urea step elution, LC/MS peak intensity ratio; assay type: binding; conditions: for peak intensity ratio (peak area of the labeled protein/peak area of the non-labeled protein): HCT116 extract
T1 construct: Insoluble fractions were removed by centrifugation to prepare soluble fractions; endogenous in cells; host or cells: HCT116
T1 sequence (Q13126 1-283): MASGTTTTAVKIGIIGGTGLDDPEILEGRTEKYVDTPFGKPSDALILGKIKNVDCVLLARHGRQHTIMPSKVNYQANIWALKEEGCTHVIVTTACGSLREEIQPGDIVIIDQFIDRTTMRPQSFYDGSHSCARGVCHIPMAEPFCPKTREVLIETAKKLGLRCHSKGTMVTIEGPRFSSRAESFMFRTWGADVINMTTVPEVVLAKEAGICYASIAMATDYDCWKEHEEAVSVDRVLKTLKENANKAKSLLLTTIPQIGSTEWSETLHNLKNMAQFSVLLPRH
Description: (§2) About 10 mg of the compound represented by formula (1):
(§3) [drawing 1] was dissolved in 4 mL of tetrahydrofuran (THF) and 4 mL of methanol (MeOH), and 4 mL of water was added thereto.
(§4) 6 mL of the resultant solution was diluted with 18 mL of THF/MeOH/Water=1/1/1 (v/v/v), and was added to 25 mL of Affi-gel 10 (produced by BioRad, Cat No. 153-6099), which had been washed with THF/MeOH/Water=1/1/1 (v/v/v) beforehand.
(§5) To the resultant substance, 100 μL of triethylamine (produced by Tokyo Chemical Industry Co., Ltd., Cat No. T0424) was added thereto and incubated at room temperature for 2 hours. Then, 500 μL of 2-aminoethanol (produced by Tokyo Chemical Industry Co., Ltd., Cat No. A0297) was added thereto and incubated at room temperature for 2 hours. The resultant gel was fully washed with THF/MeOH/Water=1/1/1 (v/v/v), and was stored at 4° C. after replacement with a methanol solution. The resultant gel was set to be used as an affinity gel. By this reaction, the compound represented by formula (1) was bound at a ratio of about 0.2 mg for 1 mL of gel. A column was filled with about 0.9 ml of the produced affinity gel. Thus, an affinity chromatography column was produced.
(§6) Human colon glandular cancer cell line HCT116 (ATCC) was cultured. Used as a medium was RPMI-1640 (Sigma, R-7130) containing 10% fetal calf serum (MOREGATE, BATCH 32300102), 100 U/ml of penicillin G; and 100 μg/ml of streptomycin (Invitrogen, 15140-122). As for the RPMI-1640 medium, a powder medium which contains none of L-glutamine, L-lysine, L-methionine, L-leucine, and sodium hydrogen carbonate was selected. Then, components absent in the medium were added. The absent components were added as follows. L-glutamine (produced by Sigma, G-8540), L-lysine (produced by Sigma, L-9037), L-methionine (produced by Sigma, M-5308), and sodium hydrogen carbonate (Wako Pure Chemical Industries, Ltd., 191-01305) were added in 0.3 g/L, 0.04 g/L, 0.015 g/L, and 2 g/L, respectively; and then naturally-occurring L-leucine and L-leucine labeled with a stable isotope ^13C (six) (Cambridge Isotope Laboratories, CLM-2262) were separately added in 0.05 g/L. Each medium thus prepared was used to culture cells in 5% CO2 at 37° C. The cells obtained by such culturing were used in the following tests as cells cultured in a naturally-occurring medium and cells cultured in a stable isotope medium, respectively.
(§7) Cells cultured in the naturally-occurring medium were provided in an amount corresponding to ten 15-cm diameter plates. Cells cultured in the stable isotope medium were provided in an amount corresponding to ten 15-cm diameter plates. The cells were collected. The cells were solubulized with about 2 ml of M-PER (PIERCE, 78501) per 15-cm diameter plate. Insoluble fractions were removed by centrifugation to prepare soluble fractions. The soluble fractions thus obtained were set to be used as a protein extract liquid metabolically labeled with a stable isotope and a protein extract liquid not metabolically labeled with a stable isotope, respectively. To these protein extract liquids (about 20 ml each), a quadruple amount of PBS was added (final amount: about 100 ml each).
as §1
(§8) In parallel with the above operation, a diluted protein extract liquid not metabolically labeled with a stable isotope was added to 0.9 ml of affinity gel from above and was naturally dropped. Then, 10 ml of PBS containing 1 M NaCl was flown to this column. […]

[3] = target: T2, PCMT1 (protein-L-isoaspartate (D-aspartate) O-methyltransferase) (Homo sapiens, UniProt P22061); test: as above; assay type: binding; conditions: for peak intensity ratio (peak area of the labeled protein/peak area of the non-labeled protein): HCT116 extract
T2 construct: Insoluble fractions were removed by centrifugation to prepare soluble fractions; endogenous in cells; host or cells: HCT116
Description: as §2, §3, §4, §5, §6, §7, §1, §8

[4] = target: T3, AHCY (S-adenosylhomocysteine hydrolase) (Homo sapiens, UniProt P23526); test: as above; assay type: binding; conditions: for peak intensity ratio (peak area of the labeled protein/peak area of the non-labeled protein): HCT116 extract
T3 construct: Insoluble fractions were removed by centrifugation to prepare soluble fractions; endogenous in cells; host or cells: HCT116
T3 sequence (P23526 2-432 limits assumed): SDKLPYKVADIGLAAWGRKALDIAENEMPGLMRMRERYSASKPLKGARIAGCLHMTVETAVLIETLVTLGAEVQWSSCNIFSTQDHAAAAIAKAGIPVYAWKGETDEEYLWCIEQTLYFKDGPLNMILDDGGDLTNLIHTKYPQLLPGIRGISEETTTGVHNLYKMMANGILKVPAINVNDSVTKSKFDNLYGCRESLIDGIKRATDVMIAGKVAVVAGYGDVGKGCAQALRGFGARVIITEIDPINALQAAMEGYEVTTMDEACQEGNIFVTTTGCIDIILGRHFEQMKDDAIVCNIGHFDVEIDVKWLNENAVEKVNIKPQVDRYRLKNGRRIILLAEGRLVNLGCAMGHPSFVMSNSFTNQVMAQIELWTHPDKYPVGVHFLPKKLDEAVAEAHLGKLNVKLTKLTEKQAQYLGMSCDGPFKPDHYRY
Description: as §2, §3, §4, §5, §6, §7, §1, §8

[5] = target: T4, SPRY4 (sprouty homolog 4) (Homo sapiens, UniProt Q9C004); test: as above; assay type: binding; conditions: for peak intensity ratio (peak area of the labeled protein/peak area of the non-labeled protein): HCT116 extract
T4 construct: Insoluble fractions were removed by centrifugation to prepare soluble fractions; endogenous in cells; host or cells: HCT116
T4 sequence (Q9C004 1-299): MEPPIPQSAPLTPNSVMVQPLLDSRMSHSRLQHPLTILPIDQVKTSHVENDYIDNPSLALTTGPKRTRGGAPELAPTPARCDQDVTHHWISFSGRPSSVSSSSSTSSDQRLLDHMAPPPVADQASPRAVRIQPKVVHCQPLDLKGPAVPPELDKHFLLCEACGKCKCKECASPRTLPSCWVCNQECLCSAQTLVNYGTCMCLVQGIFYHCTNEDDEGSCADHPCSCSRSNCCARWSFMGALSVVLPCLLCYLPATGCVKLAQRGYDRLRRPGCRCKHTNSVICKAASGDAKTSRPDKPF
Description: as §2, §3, §4, §5, §6, §7, §1, §8

[6] = system: OS9 (amplified in osteosarcoma isoform 1-4 precursor); test: as above; assay type: binding, Human; conditions: for peak intensity ratio (peak area of the labeled protein/peak area of the non-labeled protein): HCT116 extract
Description: as §2, §3, §4, §5, §6, §7
Next, about 0.9 ml of affinity gel was put into an open column, and a diluted protein extract liquid metabolically labeled with a stable isotope was added to the open column from above and was naturally dropped. Then, 10 ml of PBS containing 1 M NaCl was flown to this column. […]

T2 sequence (P22061 whole entry): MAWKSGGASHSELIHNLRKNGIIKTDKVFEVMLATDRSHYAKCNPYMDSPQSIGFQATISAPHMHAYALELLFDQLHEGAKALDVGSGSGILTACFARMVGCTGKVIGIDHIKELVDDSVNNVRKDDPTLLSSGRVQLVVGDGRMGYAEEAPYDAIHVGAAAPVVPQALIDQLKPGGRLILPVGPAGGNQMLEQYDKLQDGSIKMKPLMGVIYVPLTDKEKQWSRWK

- peak intensity ratio (peak area of the labeled protein/peak area of the non-labeled protein) ([2]; 1M Urea fraction): 0.77
- peak intensity ratio (peak area of the labeled protein/peak area of the non-labeled protein) ([2]; 2M Urea fraction): 0.78
- peak intensity ratio (peak area of the labeled protein/peak area of the non-labeled protein) ([2]; 4M Urea fraction): 0.71
- peak intensity ratio (peak area of the labeled protein/peak area of the non-labeled protein) ([2]; 8M Urea fraction): 0.88
- peak intensity ratio ([2]; all the four urea fractions): about 0.8
- peak intensity ratio (peak area of the labeled protein/peak area of the non-labeled protein) ([3]; 1M Urea fraction): 1.14
- peak intensity ratio (peak area of the labeled protein/peak area of the non-labeled protein) ([3]; 2M Urea fraction): 1.57
- peak intensity ratio (peak area of the labeled protein/peak area of the non-labeled protein) ([3]; 4M Urea fraction): 2.52
- peak intensity ratio (peak area of the labeled protein/peak area of the non-labeled protein) ([3]; 8M Urea fraction): 1.02
- fraction with the highest peak ([3]; elution with 1, 2, 4, 8 M urea): 4 M urea fraction
- peak intensity ratio (peak area of the labeled protein/peak area of the non-labeled protein) ([4]; 1M Urea fraction): 0.63
- peak intensity ratio (peak area of the labeled protein/peak area of the non-labeled protein) ([4]; 2M Urea fraction): 0.99
- peak intensity ratio (peak area of the labeled protein/peak area of the non-labeled protein) ([4]; 4M Urea fraction): 1.88
- peak intensity ratio (peak area of the labeled protein/peak area of the non-labeled protein) ([4]; 8M Urea fraction): 3.27
- fraction with the highest peak ([4]; elution with 1, 2, 4, 8 M urea): 8 M urea fraction
- peak intensity ratio (peak area of the labeled protein/peak area of the non-labeled protein) ([5]; 1M Urea fraction): 3.70
- peak intensity ratio (peak area of the labeled protein/peak area of the non-labeled protein) ([5]; 2M Urea fraction): 1.17
- peak intensity ratio (peak area of the labeled protein/peak area of the non-labeled protein) ([5]; 4M Urea fraction): 0.83
- peak intensity ratio (peak area of the labeled protein/peak area of the non-labeled protein) ([5]; 8M Urea fraction): 0.67
- fraction with the highest peak ([5]; elution with 1, 2, 4, 8 M urea): 1 M urea fraction
Structure (SMILES): NCc1ccc(S(=O)(=O)Nc2cccc3c(Cl)c[nH]c23)cc1 [formula (1)]
- binding ability of the proteins to the compound, ordered from highest to lowest [1]: AHCY, PCMT1, OS9 and SPRY4
- peak intensity ratio (peak area of the labeled protein/peak area of the non-labeled protein) ([6]; 1M Urea fraction): 1.24
- peak intensity ratio (peak area of the labeled protein/peak area of the non-labeled protein) ([6]; 2M Urea fraction): 3.57
- peak intensity ratio (peak area of the labeled protein/peak area of the non-labeled protein) ([6]; 4M Urea fraction): 1.62
- peak intensity ratio (peak area of the labeled protein/peak area of the non-labeled protein) ([6]; 8M Urea fraction): 0.73
- fraction with the highest peak ([6]; elution with 1, 2, 4, 8 M urea): 2 M urea fraction
